Test results taken from US12528819B2 (priority 2016, dated 2026).

The molecules below were run against T1, α5β2γ2 subtype GABAAR (Homo sapiens, UniProt P18507+P31644) (assay: Positive allosteric modulator activity: potentiation of EC20 GABA current in oocytes). Details: read-out: GABA α5 Functional Data (potentiation), @ 100 nM, reported as ranges.
T1 construct: expressed in transfected cells
T1 sequence (P31644 32-462): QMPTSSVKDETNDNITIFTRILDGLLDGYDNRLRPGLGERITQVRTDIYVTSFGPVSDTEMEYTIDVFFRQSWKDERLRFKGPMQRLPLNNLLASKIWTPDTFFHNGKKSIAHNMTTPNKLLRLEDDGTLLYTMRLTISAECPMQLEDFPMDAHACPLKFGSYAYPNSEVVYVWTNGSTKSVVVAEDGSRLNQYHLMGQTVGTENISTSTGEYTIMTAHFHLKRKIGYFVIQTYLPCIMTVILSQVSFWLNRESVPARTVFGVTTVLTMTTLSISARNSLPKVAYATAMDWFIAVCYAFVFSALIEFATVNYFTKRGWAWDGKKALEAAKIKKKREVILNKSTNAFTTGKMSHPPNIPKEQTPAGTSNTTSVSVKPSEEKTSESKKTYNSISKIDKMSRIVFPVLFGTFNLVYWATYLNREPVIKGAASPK
T1 sequence (P47870 25-512 partner limits assumed): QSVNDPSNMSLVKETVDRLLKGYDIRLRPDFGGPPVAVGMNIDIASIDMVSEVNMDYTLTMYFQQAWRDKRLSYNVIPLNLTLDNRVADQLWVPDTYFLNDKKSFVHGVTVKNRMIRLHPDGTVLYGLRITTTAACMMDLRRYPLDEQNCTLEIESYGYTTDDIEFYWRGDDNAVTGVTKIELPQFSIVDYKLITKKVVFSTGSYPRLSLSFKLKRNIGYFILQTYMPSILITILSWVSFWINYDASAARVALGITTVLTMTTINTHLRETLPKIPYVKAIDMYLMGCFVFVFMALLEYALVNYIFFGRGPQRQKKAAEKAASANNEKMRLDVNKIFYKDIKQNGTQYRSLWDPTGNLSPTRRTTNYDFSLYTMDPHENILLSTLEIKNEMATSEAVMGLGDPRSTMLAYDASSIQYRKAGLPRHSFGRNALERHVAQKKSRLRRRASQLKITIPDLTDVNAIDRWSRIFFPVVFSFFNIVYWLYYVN
T1 sequence (P18507 40-467 limits assumed): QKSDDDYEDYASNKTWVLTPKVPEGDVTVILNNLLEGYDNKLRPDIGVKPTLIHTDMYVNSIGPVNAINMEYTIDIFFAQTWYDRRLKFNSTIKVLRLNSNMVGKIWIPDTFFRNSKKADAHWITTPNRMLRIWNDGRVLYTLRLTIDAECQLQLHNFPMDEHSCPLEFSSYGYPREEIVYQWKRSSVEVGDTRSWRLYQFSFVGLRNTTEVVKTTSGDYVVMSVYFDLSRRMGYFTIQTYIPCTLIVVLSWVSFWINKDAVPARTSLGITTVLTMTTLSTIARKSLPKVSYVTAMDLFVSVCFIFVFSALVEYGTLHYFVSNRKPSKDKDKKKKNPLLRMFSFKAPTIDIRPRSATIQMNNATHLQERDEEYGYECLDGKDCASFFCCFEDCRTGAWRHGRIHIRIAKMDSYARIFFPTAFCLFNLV
Assay type: cell-based
Procedure: (B) Positive Allosteric Modulator Activity of Test Compounds on α5β2γ2 Subtype GABAAR
On day 1, 1 ng/32 nL of GABAA α5β2γ2 cDNA was injected into one oocyte. Test starts on day 2. The cDNA injected to the oocytes was a mix of alpha, beta and gamma, their ratio is 1:1:10 (by weight) and the total weight of the mixed 3 subunits to be injected in one oocyte was 1 ng in 32 nl volume. The injected oocytes can also be tested on day 3. In such case, the cDNA amount injected to the oocytes should be reduced by 20%.
Compounds of the present invention were tested using the following procedures.
• 1). 8 oocytes were placed in 8 chambers of OpusXpress and superfused with Modified Barth's Saline (MBS) at 3 mL/min. Glass electrodes back-filled with 3M KCl (0.5-3 megaohms) were used.
Control test (Diazepam or methyl 3,5-diphenylpyridazine-4-carboxylate) • 1). New oocytes was used to run new test. • 2). […] Oocytes were washed with MBS for 5-10 min. • 4). […] Itest was divided by IGABA to obtain potentiation (%). Test Compounds at Multiple Doses • 1). Repeat the above steps 1), 2) and 3) in the control test. • 2). […] Divide Itest by IGABA to obtain potentiation (%). • 3). Discard all tested oocytes, new oocytes were used and the above steps 1) and 2) were repeated to test second concentration of the same compound. Each oocyte was used for only one concentration test for a single test compound. The steps were repeated for other test compounds.

Structure (SMILES) | activation at 0.1 µM
CC(C)c1nc(-c2ncn3c2Cn2c(COc4cccc(F)c4)nnc2-c2cc(F)ccc2-3)no1 [Compound 188] | 20 to 50%
CC(C)c1nc(-c2ncn3c2Cn2c(COc4ccc(F)cc4)nnc2-c2cc(F)ccc2-3)no1 [Compound 189] | 20 to 50%
Cc1cccc(C)c1OCc1nnc2n1Cc1c(-c3noc(C(C)C)n3)ncn1-c1ccc(F)cc1-2 [Compound 190] | 5 to 20%
COc1ccc2c(c1)-c1nnc(COc3ccc(F)cc3)n1Cc1c(C#N)ncn1-2 [Compound 191] | 20 to 50%
CCc1nc(-c2ncn3c2Cc2c(Cc4ccccc4)nnn2-c2cc(OC)ccc2-3)no1 [Compound 194] | > 50%
CCc1nc(-c2ncn3c2Cc2c(Cc4ccc(F)cc4)nnn2-c2cc(OC)ccc2-3)no1 [Compound 195] | 20 to 50%
COc1ccc2c(c1)-c1nnc(COc3cccc(F)c3)n1Cc1c(C#N)ncn1-2 [Compound 196] | 20 to 50%
COCc1nnc2n1Cc1c(-c3nc(C)no3)ncn1-c1ccc(Cl)cc1-2 [Compound 198] | 20 to 50%
FC(F)=Cc1ncn2c1Cn1c(COc3ccccc3)nnc1-c1cc(Cl)ccc1-2 [Compound 199] | 20 to 50%
FC(F)c1ncn2c1Cn1c(COc3ccccc3)nnc1-c1cc(Cl)ccc1-2 [Compound 200] | 5 to 20%
Clc1ccc2c(c1)-c1nnc(COc3ccccc3)n1Cc1c(Br)ncn1-2 [Compound 202] | 20 to 50%
COc1ccc2c(c1)-c1nnc(COCc3cccnc3)n1Cc1c(-c3noc(C(C)C)n3)ncn1-2 [Compound 203] | 20 to 50%
C#Cc1ncn2c1Cn1c(COc3ccccc3)nnc1-c1cc(Cl)ccc1-2 [Compound 205] | 20 to 50%
COCc1nnc2n1Cc1c(-c3nc(C(C)C)no3)ncn1-c1ccc(Cl)cc1-2 [Compound 206] | 5 to 20%
COc1ccc2c(c1)-n1nnc(Cc3ccccc3)c1Cc1c(C#N)ncn1-2 [Compound 207] | 20 to 50%
COc1ccc2c(c1)-n1nnc(Cc3cccnc3)c1Cc1c(C#N)ncn1-2 [Compound 210] | 20 to 50%
COc1ccc2c(c1)-n1nnc(C)c1Cc1c(Br)ncn1-2 [Compound 211] | 5 to 20%
COc1ccc2c(c1)-n1nnc(Cc3ccccc3)c1Cc1c(Br)ncn1-2 [Compound 212] | 20 to 50%
COc1ccc2c(c1)-n1nnc(Cc3ccc(F)cc3)c1Cc1c(Br)ncn1-2 [Compound 213] | 20 to 50%
CCOCc1ncn2c1Cn1c(COC)nnc1-c1cc(Cl)ccc1-2 [Compound 215] | 5 to 20%
COCc1nnc2n1Cc1c(Br)ncn1-c1ccc(Cl)cc1-2 [Compound 217] | 5 to 20%
COc1ccc2c(c1)-n1nnc(COc3ccc(F)cc3)c1Cc1c(C#N)ncn1-2 [Compound 222] | 20 to 50%
COc1ccc2c(c1)-n1nnc(COc3ccccc3F)c1Cc1c(C#N)ncn1-2 [Compound 223] | 5 to 20%
COc1ccc2c(c1)-n1nnc(COc3ccccc3)c1Cc1c(C#N)ncn1-2 [Compound 224] | 20 to 50%
COc1ccc2c(c1)-n1nnc(COc3cccc(Br)c3)c1Cc1c(C#N)ncn1-2 [Compound 225] | 20 to 50%
N#Cc1ncn2c1Cc1c(COc3ccccc3)nnn1-c1cc(Cl)ccc1-2 [Compound 226] | 20 to 50%
N#Cc1ncn2c1Cc1c(COc3cccc(F)c3)nnn1-c1cc(Cl)ccc1-2 [Compound 227] | 5 to 20%

Structure (SMILES) | activation at 0.1 µM
Fc1ccc2c(c1)-n1cnc(Br)c1Cc1c(Cc3ccccc3)nnn1-2 [Compound 229] | 5 to 20%
COc1ccc2c(c1)-c1nnc(COc3ccccc3)n1Cc1c(Br)ncn1-2 [Compound 232] | 5 to 20%
COCc1nnc2n1Cc1c(-c3cc(C)no3)ncn1-c1ccc(Cl)cc1-2 [Compound 233] | 5 to 20%
C#Cc1ncn2c1Cn1c(COc3ccccc3)nnc1-c1cc(OC)ccc1-2 [Compound 236] | 5 to 20%
COCc1nnc2n1Cc1c(C3=NCCO3)ncn1-c1ccc(Cl)cc1-2 [Compound 238] | 20 to 50%
C#Cc1ncn2c1Cn1c(COc3cccnc3)nnc1-c1cc(OC)ccc1-2 [Compound 241] | 5 to 20%
COCc1nnc2n1Cc1c(C3=NC(c4ccccc4)CO3)ncn1-c1ccc(Cl)cc1-2 (stereo not drawn) [Compound 242] | 5 to 20%
COCc1nnc2n1Cc1c(C3=NC(C)CO3)ncn1-c1ccc(Cl)cc1-2 (stereo not drawn) [Compound 243] | 20 to 50%
COCc1nnc2n1Cc1c(-c3nc(C)co3)ncn1-c1ccc(Cl)cc1-2 [Compound 244] | 5 to 20%
COCc1nnc2n1Cc1c(-c3nc(-c4ccccc4)co3)ncn1-c1ccc(Cl)cc1-2 [Compound 245] | 5 to 20%
COCc1nnc2n1Cc1c(-c3ncco3)ncn1-c1ccc(Cl)cc1-2 [Compound 249] | 20 to 50%
COCc1nnc2n1Cc1c(C3=N[C@@H](c4ccccc4)CO3)ncn1-c1ccc(Cl)cc1-2 [Compound 264] | 20 to 50%
CC(C)OCc1nnc2n1Cc1c(C3=N[C@H](c4ccccc4)CO3)ncn1-c1ccc(Cl)cc1-2 [Compound 268] | 5 to 20%
CCOCc1nnc2n1Cc1c(C3=N[C@H](c4ccccc4)CO3)ncn1-c1ccc(Cl)cc1-2 [Compound 271] | > 50%
COCc1nnc2n1Cc1c(C#Cc3ccccc3)ncn1-c1ccc(Cl)cc1-2 [Compound 285] | 5 to 20%
COc1ccc2c(c1)-n1nncc1Cc1c(C3=N[C@H](c4ccccc4)CO3)ncn1-2 [Compound 290] | 20 to 50%
COCc1nnc2n1Cc1c(C#Cc3ccccc3C)ncn1-c1ccc(Cl)cc1-2 [Compound 293] | 20 to 50%
C#Cc1ccc2c(c1)-c1nnc(COC)n1Cc1c(C3=N[C@@H](c4ccccc4)CO3)ncn1-2 [Compound 301] | 5 to 20%
C#Cc1ccc2c(c1)-c1nnc(COC)n1Cc1c(-c3nc(-c4ccccc4)co3)ncn1-2 [Compound 302] | 5 to 20%
FC(F)(F)COCc1nnc2n1Cc1c(C3=N[C@@H](c4ccccc4)CO3)ncn1-c1ccc(Cl)cc1-2 [Compound 304] | 5 to 20%
CCOC(=O)c1ncn2c1Cn1c(COCC(F)(F)F)nnc1-c1cc(Cl)ccc1-2 [Compound 308] | 5 to 20%
Cc1ccccc1C#Cc1ncn2c1Cn1c(COC(C)C)nnc1-c1cc(Cl)ccc1-2 [Compound 310] | 5 to 20%
CCOCc1nnc2n1Cc1c(C#Cc3ccccc3C)ncn1-c1ccc(Cl)cc1-2 [Compound 311] | 5 to 20%
FC(F)(F)COCc1nnc2n1Cc1c(-c3nc(-c4ccccc4)co3)ncn1-c1ccc(Cl)cc1-2 [Compound 313] | 20 to 50%
COCc1nnc2n1Cc1c(C3=N[C@@H](c4ccccc4F)CO3)ncn1-c1ccc(Cl)cc1-2 [Compound 319] | 20 to 50%
COCc1nnc2n1Cc1c(C3=N[C@@H](c4ccc(F)cc4)CO3)ncn1-c1ccc(Cl)cc1-2 [Compound 320] | 20 to 50%
COCc1nnc2n1Cc1c(-c3nc(-c4ccccc4F)co3)ncn1-c1ccc(Cl)cc1-2 [Compound 323] | 20 to 50%
